Experimental findings from patent US12624044B2, “SMARCA degraders and uses thereof” (Kymera Therapeutics, Inc., priority 2019, dated 2026) are described below.

Where a name gives a salt, the structure may show the parent alone.

Assay [1] deals with T1, SMARCA2 (Homo sapiens, UniProt P51531). As to the kind of experiment: MSD SMARCA2 degradation in NCI-H1299 cell line (24 h). In kind it is cell-based. Further details: HC: NCI-H1299 cells treated with DMSO; host or cells: NCI-H1299. The following applies: for Dmax: NCI-H1299, NCI-H1299 cells; for DC50: NCI-H1299 cells, read-out: SMARCA2 MSD H1299 degradation 24 h: External Abs-DC50. In a few lines:
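NCI-H1299 cells treated 24 h with a 3-fold, 9-point compound dilution series, then lysed in RIPA with protease inhibitor. SMARCA2 in lysate-coated MSD plates detected with rabbit anti-SMARCA2 (0.3 ug/ml) and SULFO-TAG secondary. Relative SMARCA2 level normalized between DMSO-treated H1299 cells and SMARCA2-negative A2780 cells; Dmax % binned A–D.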

For assay [2], the target named is T1, SMARCA2. The assay is described as follows: MSD SMARCA2 degradation in A549 cell line. The class given is cell-based. The conditions noted are these: 24 h; for Dmax: A549, A549 cells; for DC50: A549 cells, read-out: SMARCA2 MSD A549 degradation 24 h: Average external-Abs DC50. The protocol:
Cells were seeded into 96-well plates (A549 cells: 2×10^4 cells/well/100 ul media) abd incubated overnight. The next day, 200 nl compound were added into the intermediate plate with Echo (Labcyte 550) from source plate containing a 3-fold serial dilution from top concentration of 1 mM. The culture medium was changed with 80 ul of fresh medium and 80 ul of 2× compound solution was added into the well to make a final concentration of 1000 nM, 333.3 nM, 111.1 nM, 37.04 nM, 12.35 nM, 4.115 nM, 1.372 nM, 0.457 nM, 0.152 nM and 0 nM (DMSO). The wells were mixed and then incubated for 24 hours. The media was aspirated from the cultures and 60 ul pre-chilled PIPA lysis buffer (Boston BioProducts BP-115D) with protease/phosphatase inhibitor (Roche 05892791001/Roche 04906837001) was added into the well to lyze the cells for 20 minutes at 4° C. The MSD plate (L15XA) was coated with 40 ul cell lysate and incubated at 4° C. overnight. The next day, the plate was washed three times with TBST (CST #9997S), 150 ul/well. The MSD plates was blocked with 150 ul blocking buffer per well and shaked for 1 hr at RT, 600 rpm. The blocking buffer was 3% Blocker A (MSD, R93BA-4) in TBST. The MSD plate was washed three times with 150 ul/well of TBST and 25 ul/well of detection antibody (Rabbit anti-SMARCA2/BRM antibody, 100 μg/ml, ab223735) was added at final concentration of 1 ug/ml diluted in 1% Blocking buffer and shaken for 1 hour at RT, 600 rpm. The MSD plate was washed three times with 150 ul/well of TBST and 25 ul/well of SULFO-TAG anti-rabbit antibody (MSD, R32AB-1) was added at final concentration of 1 ug/ml diluted in 1% Blocking buffer and shaken for 1 hour at RT, 600 rpm. The MSD plate was washed three times with 150 ul/well of TBST and 150 ul/well of 2×MSD reading buffer diluted from 4× (MSD, R92TC-2) with water was added. Lastly, the MSD instrument was read.
The letter codes for the percentage of SMARCA2 degradation after 24 hours (Dmax %) include: A (>90% degradation), B (>70-90% degradation), C (50-70% degradation), and D (<50% degradation).

T1 sequence (P51531 whole entry): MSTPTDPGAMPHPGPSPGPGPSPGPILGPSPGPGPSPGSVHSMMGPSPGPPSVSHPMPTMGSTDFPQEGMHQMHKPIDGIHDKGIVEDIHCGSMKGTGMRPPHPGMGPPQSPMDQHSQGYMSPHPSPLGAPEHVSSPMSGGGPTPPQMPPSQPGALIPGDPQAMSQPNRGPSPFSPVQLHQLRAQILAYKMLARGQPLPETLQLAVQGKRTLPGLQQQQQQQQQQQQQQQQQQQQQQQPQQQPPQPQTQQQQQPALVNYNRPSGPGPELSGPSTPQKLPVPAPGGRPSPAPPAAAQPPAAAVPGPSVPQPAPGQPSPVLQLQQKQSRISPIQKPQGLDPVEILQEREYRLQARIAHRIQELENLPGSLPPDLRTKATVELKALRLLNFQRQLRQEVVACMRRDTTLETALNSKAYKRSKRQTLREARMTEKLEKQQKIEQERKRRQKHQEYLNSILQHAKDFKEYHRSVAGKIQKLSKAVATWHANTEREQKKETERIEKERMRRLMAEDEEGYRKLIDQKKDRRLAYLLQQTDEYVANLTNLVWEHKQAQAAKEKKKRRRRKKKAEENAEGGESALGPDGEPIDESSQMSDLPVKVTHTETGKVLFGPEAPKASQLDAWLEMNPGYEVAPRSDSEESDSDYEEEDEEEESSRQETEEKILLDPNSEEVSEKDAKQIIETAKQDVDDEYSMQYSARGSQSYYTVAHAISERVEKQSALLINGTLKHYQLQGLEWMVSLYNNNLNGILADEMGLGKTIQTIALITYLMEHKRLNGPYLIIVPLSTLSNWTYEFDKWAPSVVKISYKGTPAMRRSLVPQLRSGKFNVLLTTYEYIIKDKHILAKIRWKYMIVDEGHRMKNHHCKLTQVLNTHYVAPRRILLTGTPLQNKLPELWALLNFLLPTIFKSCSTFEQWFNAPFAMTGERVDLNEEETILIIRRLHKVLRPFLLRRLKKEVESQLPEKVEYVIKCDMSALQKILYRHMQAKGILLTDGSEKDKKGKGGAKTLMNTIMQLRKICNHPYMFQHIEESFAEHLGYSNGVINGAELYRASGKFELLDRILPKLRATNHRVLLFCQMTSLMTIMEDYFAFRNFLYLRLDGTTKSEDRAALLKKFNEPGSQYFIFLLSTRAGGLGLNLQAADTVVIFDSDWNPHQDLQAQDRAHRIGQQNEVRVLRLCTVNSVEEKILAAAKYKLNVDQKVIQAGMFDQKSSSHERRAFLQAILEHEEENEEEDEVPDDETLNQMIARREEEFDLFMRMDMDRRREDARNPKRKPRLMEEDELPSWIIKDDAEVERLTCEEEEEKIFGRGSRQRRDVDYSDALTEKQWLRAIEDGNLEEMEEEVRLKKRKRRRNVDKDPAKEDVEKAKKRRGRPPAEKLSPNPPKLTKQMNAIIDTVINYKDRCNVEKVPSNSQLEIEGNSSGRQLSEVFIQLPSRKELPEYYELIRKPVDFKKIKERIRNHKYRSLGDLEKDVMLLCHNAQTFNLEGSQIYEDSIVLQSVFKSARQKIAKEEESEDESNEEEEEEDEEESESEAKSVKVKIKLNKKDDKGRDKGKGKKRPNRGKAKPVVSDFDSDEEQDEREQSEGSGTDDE

As for `COc1cc(C(=O)NCCCCCCCCCN2CCN(Cc3ccc(-c4cc(-c5ccccc5O)nnc4N)cc3)CC2)ccc1NC(=O)[C@@H]1N[C@@H](CC(C)(C)C)[C@](C#N)(c2ccc(Cl)cc2F)[C@H]1c1cccc(Cl)c1F` [I-233, (2R,3S,4R,5S)—N-[4-[9-[4-[[4-[3-amino-6-(2-hydroxyphenyl)pyridazin-4-yl]phenyl]methyl]piperazin-1-yl]nonylcarbamoyl]-2-methoxy-phenyl]-3-(3-chloro-2-fluoro-phenyl)-4-(4-chloro-2-fluoro-phenyl)-4-cyano-5-(2,2-dimethylpropyl)pyrrolidine-2-carboxamide], in assay [1], the Dmax (commonly the largest share of the target that was removed) is less than 50% and the DC50 (commonly the concentration at which degradation of the target reaches its halfway point) is more than 1 µM.
With `COc1cc(C(=O)NCCCCCCCCCCCNCc2ccc(N3CCN(c4cc(-c5ccccc5O)nnc4N)CC3)cc2)ccc1NC(=O)[C@@H]1N[C@@H](CC(C)(C)C)[C@](C#N)(c2ccc(Cl)cc2F)[C@H]1c1cccc(Cl)c1F` [I-234], in assay [1], the Dmax lay in the range of 50 to 70% and the DC50 was more than 1 µM.
With `COc1cc(C(=O)NCCCCCCCCCNCc2ccc(N3CCN(c4cc(-c5ccccc5O)nnc4N)CC3)cc2)ccc1NC(=O)[C@@H]1N[C@@H](CC(C)(C)C)[C@](C#N)(c2ccc(Cl)cc2F)[C@H]1c1cccc(Cl)c1F` [I-235], in assay [1], the Dmax was less than 50% and the DC50 is more than 1 µM.
In the case of `COc1cc(C(=O)NCCCCCCCNCc2ccc(N3CCN(c4cc(-c5ccccc5O)nnc4N)CC3)cc2)ccc1NC(=O)[C@@H]1N[C@@H](CC(C)(C)C)[C@](C#N)(c2ccc(Cl)cc2F)[C@H]1c1cccc(Cl)c1F` [I-236], in assay [1], the Dmax was less than 50% and the DC50 was more than 1 µM.
On to `COc1cc(C(=O)NCCCCCNCc2ccc(N3CCN(c4cc(-c5ccccc5O)nnc4N)CC3)cc2)ccc1NC(=O)[C@@H]1N[C@@H](CC(C)(C)C)[C@](C#N)(c2ccc(Cl)cc2F)[C@H]1c1cccc(Cl)c1F` [I-237], for which, in assay [1], the Dmax was less than 50% and the DC50 was more than 1 µM.
As for `COc1cc(C(=O)NCCCNCc2ccc(N3CCN(c4cc(-c5ccccc5O)nnc4N)CC3)cc2)ccc1NC(=O)[C@@H]1N[C@@H](CC(C)(C)C)[C@](C#N)(c2ccc(Cl)cc2F)[C@H]1c1cccc(Cl)c1F` [I-238, (2R,3S,4R,5S)—N-(4-((3-((4-(4-(3-amino-6-(2-hydroxyphenyl)pyridazin-4-yl)piperazin-1-yl)benzyl)amino)propyl)carbamoyl)-2-methoxyphenyl)-3-(3-chloro-2-fluorophenyl)-4-(4-chloro-2-fluorophenyl)-4-cyano-5-neopentylpyrrolidine-2-carboxamide hydrochloride], in assay [1], the DC50 is more than 1 µM.
On to `Cn1c(=O)n(C2CCC(=O)NC2=O)c2ccc(CCCCCCCCCNCc3cccc(C#Cc4cc(NC(=O)Nc5cc(F)ncc5CO)ccn4)c3)cc21` (centres unmarked) [I-302, 1-(2-((3-(((9-(1-(2,6-dioxopiperidin-3-yl)-3-methyl-2-oxo-2,3-dihydro-1H-benzo[d]imidazol-5-yl)nonyl)amino)methyl)phenyl)ethynyl)pyridin-4-yl)-3-(2-fluoro-5-(hydroxymethyl)pyridin-4-yl)urea], for which, in assay [2], the Dmax is less than 50% and the DC50 is more than 1 µM.
For the compound `Cn1c(=O)n(C2CCC(=O)NC2=O)c2ccc(CCCCCCCCCNCc3ccc(C#Cc4cc(NC(=O)Nc5cc(F)ncc5CO)ccn4)cc3)cc21` (centres unmarked) [I-303], in assay [2], the Dmax is less than 50% and the DC50 is more than 1 µM.
Consider `CN(CCCOCCCc1cccc2c1n(C)c(=O)n2C1CCC(=O)NC1=O)Cc1ccc(C#Cc2cc(NC(=O)Nc3cc(F)ncc3CO)ccn2)cc1` (centres unmarked) [I-304], for which, in assay [2], the maximal degradation (Dmax) is less than 50% and the DC50 is more than 1 µM.
For `Cn1c(=O)n(C2CCC(=O)NC2=O)c2cccc(CN3CCC(OC4CCN(Cc5ccc(C#Cc6cc(NC(=O)Nc7cc(F)ncc7CO)ccn6)cc5)CC4)CC3)c21` (centres unmarked) [I-305], in that order: less than 50% and more than 1 µM.
Turning to `Cn1c(=O)n(C2CCC(=O)NC2=O)c2ccc(CCCOCCCCN3CCN(Cc4ccc(C#Cc5cc(NC(=O)Nc6cc(F)ncc6CO)ccn5)cc4)CC3)cc21` (centres unmarked) [I-306], in assay [2], the Dmax was less than 50% and the DC50 is more than 1 µM.
Regarding `Cn1c(=O)n(C2CCC(=O)NC2=O)c2cccc(CCCOC3CCN(Cc4ccc(C#Cc5cc(NC(=O)Nc6cc(F)ncc6CO)ccn5)cc4)CC3)c21` (centres unmarked) [I-307], in assay [2], the Dmax is less than 50% and the DC50 was more than 1 µM.
Regarding `CN(Cc1ccc(C#Cc2cc(NC(=O)Nc3cc(F)ncc3CO)ccn2)cc1)CC1CCN(Cc2cccc3c2n(C)c(=O)n3C2CCC(=O)NC2=O)CC1` (centres unmarked) [I-308], in assay [2], the Dmax was less than 50% and the DC50 was more than 1 µM.
`O=C1CCC(n2c(=O)oc3c(CCCOC4CCN(Cc5ccc(C#Cc6cc(NC(=O)Nc7cc(F)ncc7CO)ccn6)cc5)CC4)cccc32)C(=O)N1` (centres unmarked) [I-309]: in assay [2], the Dmax was less than 50% and the DC50 is more than 1 µM.
Take `CN(Cc1ccc(C#Cc2cc(NC(=O)Nc3cc(F)ncc3CO)ccn2)cc1)C1CCN(Cc2cccc3c2n(C)c(=O)n3C2CCC(=O)NC2=O)CC1` (centres unmarked) [I-310]: in assay [2], the Dmax is less than 50% and the DC50 was more than 1 µM.
For the compound `CN(Cc1ccc(C#Cc2cc(NC(=O)Nc3cc(F)ncc3CO)ccn2)cc1)C1CCN(C(=O)c2cccc3c2n(C)c(=O)n3C2CCC(=O)NC2=O)CC1` (centres unmarked) [I-311], in assay [2], the Dmax was less than 50% and the DC50 was more than 1 µM.
For `CN(CCCOCCCc1cccc2c1n(C)c(=O)n2C1CCC(=O)NC1=O)Cc1cccc(C#Cc2cc(NC(=O)Nc3cc(F)ncc3CO)ccn2)c1` (centres unmarked) [I-312], in that order: less than 50% and more than 1 µM.
In the case of `Cn1c(=O)n(C2CCC(=O)NC2=O)c2cccc(CN3CCC(OC4CCN(Cc5cccc(C#Cc6cc(NC(=O)Nc7cc(F)ncc7CO)ccn6)c5)CC4)CC3)c21` (centres unmarked) [I-313], in assay [2], the Dmax is less than 50% and the DC50 is more than 1 µM.
Take `Cn1c(=O)n(C2CCC(=O)NC2=O)c2ccc(CCCOCCCCN3CCN(Cc4cccc(C#Cc5cc(NC(=O)Nc6cc(F)ncc6CO)ccn5)c4)CC3)cc21` (centres unmarked) [I-314]: in assay [2], the Dmax is less than 50% and the half-maximal degradation concentration (DC50) is more than 1 µM.
For `Cn1c(=O)n(C2CCC(=O)NC2=O)c2cccc(CCCOC3CCN(Cc4cccc(C#Cc5cc(NC(=O)Nc6cc(F)ncc6CO)ccn5)c4)CC3)c21` (centres unmarked) [I-315], in assay [2], the Dmax was less than 50% and the DC50 is more than 1 µM.
For `CN(Cc1cccc(C#Cc2cc(NC(=O)Nc3cc(F)ncc3CO)ccn2)c1)CC1CCN(Cc2cccc3c2n(C)c(=O)n3C2CCC(=O)NC2=O)CC1` (centres unmarked) [I-316], in that order: less than 50% and more than 1 µM.
In the case of `O=C1CCC(n2c(=O)oc3c(CCCOC4CCN(Cc5cccc(C#Cc6cc(NC(=O)Nc7cc(F)ncc7CO)ccn6)c5)CC4)cccc32)C(=O)N1` (centres unmarked) [I-317], in assay [2], the Dmax is less than 50% and the DC50 was more than 1 µM.
The matching figures for `CN(Cc1cccc(C#Cc2cc(NC(=O)Nc3cc(F)ncc3CO)ccn2)c1)C1CCN(Cc2cccc3c2n(C)c(=O)n3C2CCC(=O)NC2=O)CC1` (centres unmarked) [I-318]: less than 50% and more than 1 µM.
In the case of `Cn1c(=O)n(C2CCC(=O)NC2=O)c2cccc(CN3CCC4(CCN(Cc5cccc(C#Cc6cc(NC(=O)Nc7cc(F)ncc7CO)ccn6)c5)CC4)CC3)c21` (centres unmarked) [I-319], in assay [2], the Dmax is less than 50% and the DC50 is more than 1 µM.
For `CN(Cc1cccc(C#Cc2cc(NC(=O)Nc3cc(F)ncc3CO)ccn2)c1)C1CCN(C(=O)c2cccc3c2n(C)c(=O)n3C2CCC(=O)NC2=O)CC1` (centres unmarked) [I-320], in that order: less than 50% and more than 1 µM.
The matching figures for `Cc1ncsc1-c1ccc(CNC(=O)[C@@H]2C[C@@H](O)CN2C(=O)[C@@H](NC(=O)[C@H]2CC[C@@H](Cc3cnc(N4C5CCC4CN(c4cc(-c6ccccc6O)nnc4N)C5)nc3)CC2)C(C)(C)C)cc1` [I-367]: more than 90% and less than 0.1 µM.
On to `Cc1ncsc1-c1ccc(CNC(=O)[C@@H]2C[C@@H](O)CN2C(=O)[C@@H](NC(=O)[C@H]2C[C@@H](N(C)Cc3cnc(N4C5CCC4CN(c4cc(-c6ccccc6O)nnc4N)C5)nc3)C2)C(C)(C)C)cc1` [I-370], for which, in assay [2], the Dmax fell in the range of 70 to 90% and the DC50 lay within 0.1 to 0.5 µM.
